Test systems include A549 NSCLC; CAKI-1 renal; HCT-15 colon; HL-60(TB) leukemia; NCI-H226 lung; NCI-H23 lung; NCI-H522 lung; RXF 393 renal; SF-295 CNS; SK-MEL-2 melanoma; SK-MEL-5 melanoma; U251 CNS; M14 melanoma; MALME-3M melanoma.
Holding throughout (experiment): NCI-60 cell line screen, 48 h

Structures are written as SMILES.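 Test compounds were applied to cells in 96-well plates for 48 hours at 5 doses. TGI: concentration producing complete growth inhibition.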 Where a SMILES comes first, the peptide text is derived from it. [ ]: non-standard residue; d: D form. ξ: configuration not given here. ξLac(3-iPr) = CC(C)CC(O)C(=O)O; NMeV = CN[CH](C(=O)O)C(C)C; NMeA = CN[CH](C)C(=O)O; βAla = NCCC(=O)O Bounds are passed on as bounds.

As for `CC(NC(=O)c1ccc(NP(=O)(OCc2ccc([N+](=O)[O-])o2)N(C)CCCCCl)cc1)c1ccc(OCC2CCCCC2)c(C(N)=O)c1` (stereo not given), the TGI in the assay with A549 NSCLC is 33.2 µM; in the assay with CAKI-1 renal, more than 100 µM; in the assay with HCT-15 colon, more than 100 µM; in the assay on HL-60(TB) leukemia, 50 µM; in the assay on NCI-H226 lung, 45.1 µM; with NCI-H23 lung it was 34.8 µM. The TGI in the assay on NCI-H522 lung worked out at 34.2 µM; in the assay with RXF 393 renal, 31 µM; in the assay with SF-295 CNS it was 36.4 µM; in the assay on SK-MEL-2 melanoma, 49.3 µM; in the assay with SK-MEL-5 melanoma, 17 µM; in the assay with U251 CNS it was 49.9 µM.
On to `CO/N=C\c1cc(O)c(O)c(/C=N/OC)c1`, for which the TGI in the assay with A549 NSCLC is more than 100 µM; in the assay with CAKI-1 renal, more than 100 µM; with HCT-15 colon, more than 100 µM; in the assay with HL-60(TB) leukemia, 99.3 µM; in the assay on M14 melanoma, more than 100 µM; with MALME-3M melanoma, more than 100 µM. The TGI with NCI-H226 lung was 88.9 µM; in the assay on NCI-H23 lung, 99.4 µM; in the assay with NCI-H522 lung it was more than 100 µM; with RXF 393 renal, more than 100 µM; in the assay with SF-295 CNS, more than 100 µM; in the assay on SK-MEL-2 melanoma, more than 100 µM. Moreover, the TGI in the assay on SK-MEL-5 melanoma and with U251 CNS was more than 100 µM each time.
As for `CCC(C)C1NC(=O)C2CCCN2C(=O)C(CC(C)C)OC(=O)CCNC(=O)C(C)N(C)C(=O)C(C(C)C)N(C)C1=O` (stereo not given) (cyclo([ξLac(3-iPr)]PI[NMeV][NMeA][βAla]); configuration not given here), the TGI in the assay on A549 NSCLC was more than 100 µM; in the assay on CAKI-1 renal it was more than 86.2 µM; with HCT-15 colon, more than 100 µM; in the assay with HL-60(TB) leukemia, 18.2 µM; in the assay on M14 melanoma, 6.49 µM; in the assay with MALME-3M melanoma, 45.2 µM. In addition, the TGI in the assay with NCI-H226 lung was more than 45.9 µM; with NCI-H23 lung it was more than 71.6 µM; in the assay with NCI-H522 lung, 60.2 µM; in the assay on RXF 393 renal, 98 µM; in the assay with SF-295 CNS, 8.05 µM; with SK-MEL-2 melanoma, 8.81 µM. Besides, the results for the TGI with SK-MEL-5 melanoma and with U251 CNS were 3.27 µM and more than 100 µM, respectively.
As for `O=C1c2ccccc2C(=O)c2c(Nc3cc4c5c(ccc6c7ccc8c9c(cc(Nc%10cccc%11c%10C(=O)c%10ccccc%10C%11=O)c(c3c56)c97)-c3ccccc3C8=O)C(=O)c3ccccc3-4)cccc21`, the TGI in the assay with A549 NSCLC, in the assay with CAKI-1 renal, in the assay with HCT-15 colon, in the assay with M14 melanoma, in the assay with MALME-3M melanoma and with NCI-H226 lung was more than 100 µM each time. Further, the TGI in the assay with NCI-H23 lung, in the assay with NCI-H522 lung, in the assay with RXF 393 renal, in the assay on SF-295 CNS, in the assay with SK-MEL-2 melanoma and in the assay with SK-MEL-5 melanoma was more than 100 µM in each case. Besides, the TGI with U251 CNS was 55 µM.
In the case of `Cc1ccc(C2COc3cc(O)c(O)cc3C2)cc1` (stereo not given), the TGI was 192 µM in the assay with A549 NSCLC; 38.1 µM in the assay on CAKI-1 renal; 31.8 µM in the assay on HCT-15 colon; 8.27 µM in the assay on HL-60(TB) leukemia; 48.9 µM in the assay with MALME-3M melanoma; 235 µM with NCI-H226 lung. The TGI in the assay on NCI-H23 lung turned out to be 65.6 µM; with RXF 393 renal, 26.2 µM; in the assay on SF-295 CNS it was 134 µM; in the assay with SK-MEL-2 melanoma it was 57.3 µM; with SK-MEL-5 melanoma, 105 µM; with U251 CNS, 94.3 µM.
As to `O=C(c1ccccc1)c1nc2ccc(Cl)cc2c2c1CCCO2`, the TGI with CAKI-1 renal, with HCT-15 colon, with M14 melanoma, in the assay with MALME-3M melanoma, in the assay with NCI-H226 lung and in the assay on NCI-H23 lung was more than 100 µM throughout. The TGI with NCI-H522 lung, in the assay on RXF 393 renal, in the assay on SF-295 CNS, in the assay on SK-MEL-2 melanoma and with U251 CNS was more than 100 µM in each case.
For `O=C1C=CC(=O)c2c(O)c(Br)c(Br)c(O)c21`, the TGI with A549 NSCLC stood at 41.5 µM; with HCT-15 colon, 4.83 µM; in the assay with HL-60(TB) leukemia, 2.21 µM; in the assay with M14 melanoma it was 3.79 µM; in the assay with MALME-3M melanoma it was 2.54 µM; in the assay with NCI-H226 lung, 55.6 µM. In addition, the TGI in the assay on NCI-H23 lung is 13.3 µM; in the assay on RXF 393 renal it was 6.13 µM; with SF-295 CNS, 36.9 µM; in the assay on SK-MEL-2 melanoma, 46.6 µM; in the assay with SK-MEL-5 melanoma it was 27.2 µM; with U251 CNS, 33.7 µM.
Regarding `COc1cc(C(=O)CC2OC(=O)C(Cl)=C2Cl)ccc1Cl` (stereo not given), the TGI with A549 NSCLC, in the assay on CAKI-1 renal, with HCT-15 colon, in the assay with HL-60(TB) leukemia, with M14 melanoma and with MALME-3M melanoma was more than 100 µM throughout. Also, the TGI in the assay on NCI-H226 lung, with NCI-H23 lung, in the assay with NCI-H522 lung, in the assay with RXF 393 renal, in the assay on SF-295 CNS and in the assay with SK-MEL-2 melanoma was more than 100 µM throughout. In addition, the TGI in the assay on SK-MEL-5 melanoma and with U251 CNS was more than 100 µM throughout.
As to `O=C(c1ccccc1)C1C(c2ccccc2)N1S(=O)(=O)c1ccccc1` (stereo not given), the TGI in the assay with A549 NSCLC, in the assay on CAKI-1 renal, with HCT-15 colon, with M14 melanoma, in the assay with MALME-3M melanoma and with NCI-H226 lung was more than 100 µM each time. The TGI in the assay with NCI-H23 lung, with NCI-H522 lung, with RXF 393 renal, in the assay with SF-295 CNS, in the assay with SK-MEL-2 melanoma and in the assay with SK-MEL-5 melanoma was more than 100 µM each time. Besides, the TGI in the assay with U251 CNS was more than 100 µM.

The values are drawn from PubChem BioAssay (NCI).
